Laboratory results taken from patent publication US7247615B2, “Peptide agonists of prostate-specific antigen and uses therefor” (priority 2001, dated 2007).

Assays:
[1] = target: T1, HLA-A2 (Homo sapiens, UniProt P04439, D140Y/D185E/D98H/E176V/E277Q/G131W/G231S/I119V/I121R/I166T/I218V/L300P/L318F/N151K/N90K/P208A/P217A/Q86G/Q94H/R138H/R169H/T345S); assay: Peptide binding to HLA-A2 on T2A2 cells (flow cytometry)
T1 construct: endogenous in cells; host or cells: T2A2 / 174CEM-T2 (T2) transport deletion mutant cell line
Description: Single-color flow cytometric analysis. The method for single-color flow cytometric analysis was described previously (F. Guadagni et al., 1990, Cancer Res. 50:6248–6255). Briefly, cells were washed three times with cold Ca^2+ and Mg^2+-free DPBS and then stained for 1 h with mAb against HLA-A2 (A2,69, One Lambda, Inc., Canoga Park, Calif.), using 10 μg of the 1× working dilution per 10^6 cells. Mineral oil plasmacytoma-104E (Cappel/Organon Teknika Corp., West Chester, Pa.) was used as an isotype control. The cells were washed three times and incubated with a 1:100 dilution of fluorescein isothiocyanate (FITC)-labeled goat anti-mouse immunoglobulin (IgG) (Kirkegaard and Perry Laboratories, Gaithersburg, Md.). The cells were immediately analyzed using a Becton Dickinson FACScan equipped with a blue laser with an excitation of […] at 488 nm. Data were gathered from 10,000 live cells, stored and used to generate results.
Peptide Binding to HLA-A2. […] Briefly, 1×10^6 cells in serum-free Iscove's modified Dulbecco's complete medium were incubated with peptides at a concentration of 50 μg/ml in 24 well culture plates at 37° C. in 5% CO2. Flow cytometry for peptide binding was performed using T2 cells and single-color analysis. After cells were washed three times in DPBS, as described above, they were incubated for 1 h with HLA-A2 specific MAb (One Lambda, Inc.) using 10 μg of a 1× working dilution per 10^6 cells. UPC-10 (Cappel/Organon Teknika) was used as isotype control. The cells were washed three times and incubated with 1:100 dilution of FITC-labeled anti-mouse IgG (Becton Dickinson). Analysis was conducted with the FACScan, as described above. Cells were maintained on ice during all cell preparation and staining.
The four analogs were then tested for binding to the HLA-A2 positive T2A2 cells as described in the Examples section. The NCA peptide was previously shown to not bind to HLA-A2, and was used as a negative […] control. Peptides were added to T2A2 cells at concentrations of 0 to 50 μg/ml.

[2] = tested on: C1R-A2 cells; assay: 111In release cytotoxic assay, peptide-pulsed targets; type: cell-based, human
[3] = tested on: T-PSA-3 cells; assay: Cytometric Bead Array cytokine production by peptide-stimulated T cells; type: cell-based, human
Description: (§1) Detection of Cytokines. Supernatant of T cells exposed for 24 h to peptide-pulsed infected DC, rV-PSA infected DC, or rV-PSA-3A infected DC, in IL-2-free medium at various responder: stimulator ratios, were screened for secretion of IFN-γ using an ELISA kit (R & D Systems, Minneapolis, Minn.). The results were calculated as pg/ml. A Cytometric Bead Array (CBA) system (BD PharMingen, San Diego, Calif.) was also used to determine the secretion of multiple cytokines by specific T cell lines. The CBA system uses the fluorescence detection by flow cytometry to measure soluble analytes in a particle-based immunoassay. The BD human Th1/Th2 cytokine CBA Kit was employed to measure IL-2, IL-4, IL-5, IL-10, TNF-α, and IFN-γ protein levels in a single sample. The cytokine capture beads were mixed with PE-conjugated detection antibodies and then incubated with recombinant cytokine standards or test samples to form sandwich complexes. The samples results were generated in graphical and tabular format using BD CBA analysis software. The results were calculated as pg/ml.
The cytokine profile of T cells stimulated with APCs pulsed with either the PSA-3 or the PSA-3A peptide was then analyzed. The T cell line derived using the PSA-3 peptide was used in these studies, and the APCs used were autologous B cells. A Cytometric Bead Array (CBA) assay was used for analysis (see Examples section) using supernatant fluids obtained 24 h after stimulation. FIGS. 6A–6C illustrate […] of the 10 internal standards used for the calibration of the results obtained in this assay. FIGS. 6D–6F show the levels of each of six cytokines produced by T cells stimulated with APCs pulsed with no peptide, PSA-3A peptide, and PSA-3 peptide, respectively. […] The results obtained for IL-5 will be discussed below (Conclusions section).

[4] = tested on: T-PSA-3A cells; assay: IFN-γ production by T cell line stimulated with peptide-pulsed DCs (ELISA); type: cell-based, human; conditions: peptide 25 μg/ml
Description: as §1
Table 2: Production of IFN-γ by a T cell line stimulated with PSA-3 or agonist PSA-3A peptides. The PSA-specific T cell line T-PSA-3A was used as effector cells at IVS-3. T-PSA-3A cells were stimulated with irradiated HLA-A2 positive allogeneic DCs either pulsed with PSA-3 or PSA-3A peptide at a concentration of 25 μg/ml and an effector-to-APC ratio of 10:1. After 24-h culture supernatants were collected and screened for the secretion of IFN-γ. APC=antigen […].

[5] = T-PSA-3 + peptide-pulsed autologous B cells, 24 h supernatant

Sequence: VLSNDVCAQV (SEQ ID NO:3) [PSA-3A]
- Binding to HLA-A2 at lower peptide concentrations ([1]; FIG. 1B): clearly bound higher levels of HLA-A2 than PSA-3
- Binding to HLA-A2 (relative fluorescence, MFI) ([1]; peptide 0 to 50 μg/ml, FIG. 1A): higher levels than PSA-3
- Fold less peptide than PSA-3 peptide necessary for lysis ([2]; T-PSA-3A line, C1R-A2 targets, E:T 25:1, FIG. 4A): approximately 8 fold
- Fold less peptide required to achieve similar levels of lysis ([2]; T-PSA-3 line, C1R-A2 targets, E:T 25:1): approximately 8 fold
- Lysis of peptide-pulsed C1R-A2 cells by T-PSA-3A line ([2]; peptide 25 μg/ml, IVS-3, two E:T ratios, FIG. 3A): to a greater extent than cells pulsed with the PSA-3 peptide
- Lysis of peptide-pulsed C1R-A2 cells by T-PSA-3 line ([2]; peptide 25 μg/ml, IVS-3, two E:T ratios, FIG. 3B): to a greater extent than those pulsed with the PSA-3A peptide
- Production of IL-5 ([3]; T cells stimulated with PSA-3A as compared to PSA-3 peptide): increase
- Production of IFN-γ [3, 5]: greater production
- Production of IL-2 [3, 5]: greater production
- Production of IL-4 [3, 5]: Low or undetectable levels
- Production of IL-10 [3, 5]: Low or undetectable levels
- Production of TNF-α [3, 5]: No TNF-α could be detected
- PRODUCTION OF IFN-γ ([4]; APC DCs, T-PSA-3A T cells present, effector-to-APC 10:1, 24 h, IVS-3): 566 pg/mL
- PRODUCTION OF IFN-γ ([4]; APC DCs, no T cell, 24 h): <15 pg/mL
- PRODUCTION OF IFN-γ ([4]; no APC, T-PSA-3A T cells present, 24 h): <15 pg/mL
